The results in this text go back to ChEMBL document CHEMBL4402532, “Heme Oxygenase-2 (HO-2) as a therapeutic target: Activators and inhibitors” (Eur J Med Chem, 2019).

Bounds are passed on as bounds.

Holding throughout (format): microsomes
Test [1] concerns the target T1, Heme oxygenase 1 (Rattus norvegicus, UniProt P06762).
T1 sequence (P06762 whole entry): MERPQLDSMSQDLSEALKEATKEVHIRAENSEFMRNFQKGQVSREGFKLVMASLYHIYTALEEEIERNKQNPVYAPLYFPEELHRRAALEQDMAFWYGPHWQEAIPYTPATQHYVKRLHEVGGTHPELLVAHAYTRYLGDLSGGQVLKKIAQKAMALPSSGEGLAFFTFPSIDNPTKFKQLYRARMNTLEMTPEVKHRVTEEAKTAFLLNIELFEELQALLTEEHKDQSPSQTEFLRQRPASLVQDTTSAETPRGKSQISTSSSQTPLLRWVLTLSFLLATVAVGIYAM
Description: Inhibition of Sprague-Dawley rat spleen microsome HO-1 preincubated for 10 mins followed by beta-NADPH addition and measured after 15 mins by gas chromatography.

Test [2] concerns the target T2, Heme oxygenase 2 (Rattus norvegicus, UniProt P23711).
T2 sequence (P23711 whole entry): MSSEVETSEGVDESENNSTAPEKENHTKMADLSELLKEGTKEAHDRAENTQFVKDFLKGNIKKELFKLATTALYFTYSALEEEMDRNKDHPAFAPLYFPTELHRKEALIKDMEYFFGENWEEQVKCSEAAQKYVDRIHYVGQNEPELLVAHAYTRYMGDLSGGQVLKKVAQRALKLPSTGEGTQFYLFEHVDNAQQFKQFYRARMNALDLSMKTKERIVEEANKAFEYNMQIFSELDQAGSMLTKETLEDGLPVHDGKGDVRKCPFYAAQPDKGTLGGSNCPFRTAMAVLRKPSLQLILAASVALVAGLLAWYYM
Description: Inhibition of Sprague-Dawley rat brain microsome HO-2 preincubated for 10 mins followed by beta-NADPH addition and measured after 15 mins by gas chromatography.

Test [3] addresses T3, Heme oxygenase 1 (Rattus norvegicus) (UniProt P06762).
T3 sequence (whole entry): T1 sequence (P06762 whole entry)
Description: Activation of rat spleen microsome HO-1 preincubated for 10 mins followed by NADPH addition and measured after 15 mins by gas chromatography relative to control. The arrangement: concentration or dose not given beside the values.

Test [4] deals with T4, Heme oxygenase 2 (Rattus norvegicus) (UniProt P23711).
T4 sequence (whole entry): T2 sequence (P23711 whole entry)
Briefly: Activation of rat brain microsome HO-2 […] preincubated for 10 mins followed by NADPH addition and measured after 15 mins by gas chromatography relative to control. The arrangement: concentration or dose not given beside the values.

The target of test [5] is T2, Heme oxygenase 2. Briefly: Inhibition of rat brain microsome HO-2 preincubated for 10 mins followed by beta-NADPH addition and measured after 15 mins by gas chromatography.
For test [6], the target named is T1, Heme oxygenase 1. Briefly: Inhibition of rat spleen microsome HO-1 preincubated for 10 mins followed by beta-NADPH addition and measured after 15 mins by gas chromatography.

In the case of `Cc1ccc(S(=O)(=O)C[C@@H]2CO[C@@](CCc3ccc(Cl)cc3)(Cn3ccnc3)O2)cc1`, the results for the IC50 at Heme oxygenase 1 [1] and against Heme oxygenase 2 [2] were 6 µM and 3 µM, respectively.

Regarding `O=C1CCCc2ccccc21`, the Activity in test [3] was found to be 98%; in test [4], 96%.

Consider `Fc1ccc(CO[C@@H](CCc2ccc(Cl)cc2)Cn2ccnc2)cc1`, for which the IC50 at Heme oxygenase 1 [1] came out at 0.9 µM; on Heme oxygenase 2 [2] it was 1 µM. On the same counts, the results for `c1ccc(CCCCCCn2ccnc2)cc1` are 2.8 µM and 20 µM. Turning to `O=C(Cc1ccc(Br)cc1)Cn1ccnn1`, the IC50 amounted to 0.39 µM on Heme oxygenase 1 [1] and 3 µM at Heme oxygenase 2 [2].

For the compound `Brc1ccc(Cn2c(CC3CCCC3)nc3ccccc32)cc1`, the values for the IC50 against Heme oxygenase 1 [1] and at Heme oxygenase 2 [2] were 75.6 µM and 8.4 µM, respectively.

In the case of `OC(Cn1ccnc1)CC12CC3CC(CC(C3)C1)C2` (stereo unspecified), the figures for the IC50 on Heme oxygenase 1 [1] and on Heme oxygenase 2 [2] were 2 µM and 6.5 µM, respectively. In the case of `O=C(Cn1ccnc1)c1ccc(Cl)c(Cl)c1Cl`, the IC50 amounted to 2.1 µM at Heme oxygenase 1 [1] and 6 µM on Heme oxygenase 2 [2].

Take `COc1ccc(NC2=C(N3CCCCC3)C(=O)c3ccccc3C2=O)cc1`: the Activity worked out at 82% in test [3] and 249% in test [4].

For `COc1ccc(CC(O)CCn2ccnc2)cc1` (stereo unspecified), the IC50 stood at 0.7 µM on Heme oxygenase 1 [1] and 6 µM against Heme oxygenase 2 [2].

Turning to `CC(C)(C)N1COc2ccc3c4c(oc3c2C1)C(=O)c1ccccc1C4=O`, the Activity was 85% in test [3] and 345% in test [4]. On to `O[C@H](Cn1ccnc1)c1ccc(CCc2ccccc2)cc1`, for which the IC50 worked out at 0.225 µM against Heme oxygenase 1 [1] and 8 µM on Heme oxygenase 2 [2].

As to `Cc1oc2c(c1C(=O)N1CCCC1)C(=O)c1ccccc1C2=O`, the results for the Activity in test [3] and in test [4] were 91% and 602%, respectively. With `O=C(Cn1cncn1)c1ccc(Cc2ccccc2)cc1`, the values for the IC50 against Heme oxygenase 1 [1] and at Heme oxygenase 2 [2] were 2.7 µM and 7 µM, respectively. The compound `c1ccc(CSCCn2ccnc2)cc1` registered an IC50 against Heme oxygenase 2 [2] of 10 µM. As to `O=C1C=CC(=O)c2ccccc21`, the results for the Activity in test [3] and in test [4] were 71% and 503%, respectively. With `O=C(Cn1ccnc1)c1ccc(Cl)c(Cl)c1`, half-maximal inhibition at Heme oxygenase 1 [1] (IC50) required 1.24 µM. In the case of `O=C(Cn1ccnc1)c1ccc(C2CCCCC2)cc1`, the IC50 against Heme oxygenase 1 [1] amounted to 5 µM; on Heme oxygenase 2 [2] it was 6 µM.

In the case of `CC(C)N1CCN(c2ccc(OCC3COC(Cn4cncn4)(c4ccc(Cl)cc4Cl)O3)cc2)CC1` (stereo unspecified) [TERCONAZOLE], the IC50 against Heme oxygenase 2 [5] turned out to be 5 µM; against Heme oxygenase 1 [6] it was 0.41 µM. `O=C(Cn1ccnc1)c1cccc2ccccc12`: the IC50 against Heme oxygenase 1 [1] stood at 2.24 µM; against Heme oxygenase 2 [2], 10 µM.

Take `c1ccc(CCCCn2ccnc2)cc1`: the IC50 at Heme oxygenase 1 [1] was determined as 0.25 µM; against Heme oxygenase 2 [2], 6.7 µM.

With `Cc1ccc(Cn2c(CC3CCCC3)nc3ccccc32)cc1`, the values for the IC50 against Heme oxygenase 1 [1] and against Heme oxygenase 2 [2] were 18.1 µM and 8.6 µM, respectively. On the same counts, the results for `c1ccc(Cn2c(CC3CC4CCC3C4)nc3ccccc32)cc1` (stereo unspecified) are above 100 µM and 6.3 µM.

With `O=C1C(O)=C(Cl)C(=O)c2ccccc21`, the Activity in test [3] is 106%; in test [4] it was 108%.
